# Measured values taken from ChEMBL document CHEMBL3507680, “University of Dundee, Gates Library screen for HepG2 cell viability”.
# Assay: Human HepG2 cell viability assay in 384 well format
# Type: toxicity, cell-based
# Parameters: dose 125 nL, time 70.5 hour; concentration not given beside the values
# Conditions: HepG2 cells, read-out: Inhibition
row,SMILES,cytotoxicity at 70.5 h [%]
1,O=C1CCC(=O)c2oc3ccccc3c2N1,-5.85
2,NC(=O)c1nc(-c2cccc(Cl)c2)oc1N,-14.1
3,Cc1nnc(NC(=O)C(C)n2ncc(Br)c2C)s1 (centres undefined),24.3
4,Cn1cc(Br)c(C(=O)NCCCn2cc(Cl)cn2)n1,0.918
5,Cc1nc(NC(=O)C(C)n2ncc(Br)c2C)sc1C (centres undefined),1.11
6,Cc1nn(CCC(=O)N2CCN(Cc3cnn(C)c3C)CC2)c(C)c1Br,1.42
7,CCn1cc(NC(=O)c2c(C)nn(C)c2C)c(C(N)=O)n1,19
8,CCn1ncc(CN(C)C(=O)c2cc(C(F)(F)F)n(C)n2)c1C,-17.2
9,CNC(=O)c1nn(C)cc1NC(=O)C(C)n1ncc(Cl)c1C (centres undefined),-6.57
10,CCn1ncc(Cl)c1CN(C)C(=O)CCn1ncc(Br)c1C,-18
11,CCn1cc(S(=O)(=O)NC2CCCC2)cn1,-11.8
12,COc1ccc(OC)c(C(C)NS(=O)(=O)c2cnn(C)c2)c1 (centres undefined),-12
13,CCS(=O)(=O)N1CCN(C(=O)c2ccc(Cn3cc(Br)cn3)cc2)CC1,-6.35
14,Cc1cccc(OCc2ccc(C(=O)N3N=CCC3(O)C(F)(F)F)o2)c1 (centres undefined),9.08
15,Cn1nc(C(=O)N2CCOCC2)cc1C(=O)Nc1ncc(Cl)cc1Cl,14.9
16,FC(F)(F)c1cc(-c2cccs2)nc(N2CCN3CCCC3C2)n1 (centres undefined),-13.6
17,Cc1n[nH]c(C)c1S(=O)(=O)N(C)Cc1nn(C)c(Cl)c1Cl,22.3
18,Cc1nn(C)c(C)c1CN(C)S(=O)(=O)c1c(C)n[nH]c1C,-5.08
19,CCN(Cc1c(C)nn(CC)c1C)S(=O)(=O)c1cn(C)nc1C,-2.98
20,CCN(Cc1c(C)nn(CC)c1C)S(=O)(=O)c1cnn(C)c1C,14.5
21,CCN(Cc1c(C)nn(CC)c1C)S(=O)(=O)c1cnn(C)c1,-6
22,Cn1ncc(C(=O)O)c1C(=O)Nc1nc2ccccc2s1,14.7
23,CCOc1ccc2nc(NC(=O)c3c(C(=O)O)cnn3C)sc2c1,-14.2

row,SMILES,cytotoxicity at 70.5 h [%]
1,Cn1ncc(C(=O)O)c1C(=O)Nc1nc2ccc(Br)cc2s1,14.8
2,COC(=O)c1cc(C2CC2)nc2c(C#N)cnn12,25
3,CCn1ccc(-c2cc(C(=O)O)n3nc(C)c(Cl)c3n2)n1,-9.11
4,CCC(CCNC(=O)c1cc(C2CC2)nc2c1cnn2C)n1cccn1 (centres undefined),-19.4
5,CCC(=O)NCCNC(=O)c1nn(C)c(C)c1Cl,-11.9
6,CCn1cc(-c2cc(C(F)(F)F)nc(NC3CCCC3)n2)c(C)n1,-6.79
7,CCOC(=O)CNC(=O)c1cc(-c2ccccc2)nc2ncnn12,1.18
8,N#Cc1cn[nH]c1NCc1cc(Cl)cc(Cl)c1O,17.4
9,COc1cc(NCc2cccnc2)c(-c2nn[nH]n2)cc1OC,-11.1
10,COc1ccc(-c2cc(C3(O)CCCC3)on2)cc1,1.51
11,Nc1nnc(Cn2nnc(-c3ccccc3F)n2)s1,-12.8
12,Nc1nnnn1NCc1cccc2ccccc12,-11.8
13,CCCC(C)(O)c1cc(C(N)=O)no1 (centres undefined),-9.46
14,Clc1cccc(-n2cnnn2)c1N1CCCCC1,29.1
15,Clc1cccc(-n2cnnn2)c1N1CCOCC1,-5.42
16,COc1c(CC2CC(C(=O)O)=NO2)c(Br)c2c(c1OC)OCO2 (centres undefined),-7.83
17,COc1c(CC2CC(CO)=NO2)c(Br)c2c(c1OC)OCO2 (centres undefined),-0.342
18,COc1cc(CC2CC(c3ccc4c(c3)OCO4)=NO2)cc2c1OCO2 (centres undefined),-9.64
19,COc1cc(C2SCC(=O)Nc3[nH]ncc32)c(OC)c2c1OCO2 (centres undefined),-12.7
20,COc1c(C2CC(=O)Nc3[nH]ncc32)cc2c(c1OC)OCO2 (centres undefined),-13.5
21,O=C1CC(c2cccc(Cl)c2)c2snc(C(=O)O)c2N1 (centres undefined),-5.92
22,CC(=O)c1c(O)ccnc1C(F)(F)F,-3.79
23,Cc1cc2ccccc2n1CC(=O)NCC(=O)N1CCOCC1,-13.2

row,SMILES,cytotoxicity at 70.5 h [%]
1,O=C(c1cc(-c2cccs2)cs1)N1CCOCC1,-8.23
2,CCN1CCN(C(=O)c2cc(-c3cccs3)cs2)CC1,15.8
3,O=C(NC1CCCC1)c1cc(Sc2ncccn2)ccn1,-13.6
4,Cc1cc(C(=O)Nc2cnn(CC(F)(F)F)c2)nc(N2CCOCC2)n1,-13.4
5,Cc1c(NC(=O)c2cccc(Br)c2)c(C(=O)N(C)C)nn1C,22.7
6,CCn1nc(C)c(C(=O)NCc2csc(C3CC3)n2)c1C,1.51
7,Cc1cccc2c1cnn2CCC(=O)NCc1csc(C2CC2)n1,-8.07
8,Cc1ccnn1CC(=O)Nc1cc(-c2ccncc2)[nH]n1,-6.24
9,CN1CCN(C(=O)c2cc(-c3ccco3)cs2)CC1,-20.5
10,CC1CCCN(C(=O)c2cc(-c3ccco3)cs2)C1 (centres undefined),-14.8
11,CC1CCCN(C(=O)c2ccc(-c3ccco3)o2)C1 (centres undefined),-22.7
12,CCn1cc(N2Cc3nc(N4CCC(O)CC4)ncc3C2=O)cn1,2.23
13,Cc1nc(Nc2cnccn2)cc(C2CCN(c3ncccn3)C2)n1 (centres undefined),-12.7
14,CN[C@H]1CC[C@]2(CC1)CNC(=O)c1cc(C)ccc1O2,-8.44
15,CC(=O)N(C)[C@H]1CC[C@]2(CC1)CNC(=O)c1cc(C)ccc1O2,-11.3
16,COCC(=O)N1CCCCC1c1ccncn1 (centres undefined),10.7
17,O=C(O)COc1ccccc1CN1CCCC1c1cnccn1 (centres undefined),-9.06
18,COCC(=O)N1CCC(C(=O)c2cc(C)cnc2N)CC1,-1.24
19,COCCC(=O)N1CCC(C(=O)c2cc(C)cnc2N)CC1,-8.64
20,COCC(=O)N1CCCCC1c1ccnc(Nc2cnccn2)n1 (centres undefined),-7.98
21,Cc1nc(C2CCCN2C(=O)COc2ccccc2)ncc1C(N)=O (centres undefined),-4.1
22,Cc1nc(C2CCCN2C(=O)Cc2ccc(F)cc2)ncc1C(N)=O (centres undefined),-8.28
23,Cc1noc(C)c1-c1cncc(C2CCCN2Cc2ncccc2F)n1 (centres undefined),-6.52

row,SMILES,cytotoxicity at 70.5 h [%]
1,CNc1cc(C2CCCN(Cc3ccccc3OCC(=O)O)C2)ccn1 (centres undefined),-8.72
2,O=C(N1CCCCC1)N1CCCC(c2ncncc2-c2ccncc2)C1 (centres undefined),-8.3
3,CC(=O)N1CCCC(c2ncncc2-c2ccncc2)C1 (centres undefined),-7.71
4,COc1ccc(C2Nc3cc(Cl)ccc3C3=NCCN32)cc1O (centres undefined),-1.91
5,Cc1nn(C)c(C)c1-c1cnc(C2CCCN(S(C)(=O)=O)C2)cn1 (centres undefined),-9.63
6,Cc1cc(CCC(N)=O)cc(C2CCCN2Cc2cnc(C)nc2)n1 (centres undefined),-7.32
7,Cc1cc(N2CCCC2c2cncc(N(C)C)n2)ncn1 (centres undefined),1.3
8,Cc1ccnc(C2CCCN2C(=O)CN(C)C)n1 (centres undefined),-1.48
9,Cc1cccc(C(=O)N2CC(Cc3nccc4ccn(C)c34)C2)n1,1.37
10,Cc1nc(C2CCCN2C(=O)c2ccc(F)cc2)ncc1C(N)=O (centres undefined),-3.31
11,CC(=O)N1CCN(c2cc(C3CN(C(C)=O)CCO3)nc(C)n2)CC1 (centres undefined),-4.45
12,COc1ccccc1CN1CCC(c2nn(CCN)c3nccnc23)C1 (centres undefined),-0.747
13,Cc1ccccc1CN1CCC(c2nn(CCN)c3nccnc23)C1 (centres undefined),-0.306
14,CCC(CC)C(=O)N1CCC(c2nn(CCN)c3nccnc23)C1 (centres undefined),-4.84
15,O=C(CC1CCCCC1)N1CCC(c2ncc3c(n2)CCNC3)CC1,-7.09
16,CCC(=O)N1CCC(c2ncc3c(n2)CCNC3)CC1,-4.58
17,CN1CCCCC1c1ncc2c(n1)CCN(CCCc1ccccc1)C2 (centres undefined),16.2
18,O=C(C1CCCC1)N1CCC(c2ncc3c(n2)CCNC3)C1 (centres undefined),-5.84
19,NC(=O)CN1CCCC(c2nccnc2Oc2cccc(F)c2)C1 (centres undefined),-9.46
20,Cc1cccc(CN2CCC(C3Nc4ccccc4S(=O)(=O)N3)CC2)n1 (centres undefined),-2.6
21,Cc1ccc2c(c1)C(=O)NCC1(CCN(C(=O)c3sccc3C)CC1)O2,-5.39
22,Cc1ccc2c(c1)C(=O)NCC1(CCN(C(=O)c3cnccn3)CC1)O2,-11
23,Cc1cc2c(=O)n3c(nc2s1)CCN(C(=O)c1ccnn1C)CC3,-8.17

row,SMILES,cytotoxicity at 70.5 h [%]
1,CCCC(=O)N1CCC(c2cc3n(n2)[C@@H](C(F)(F)F)C[C@@H](C)N3)CC1,-3.97
2,Cc1ccc(S(=O)(=O)N2C[C@H]3C[C@H](NC(=O)c4cscn4)[C@H]3C2)cc1,9.07
3,Cc1ccc(-c2cc(N)c(=O)n(C(C)C(=O)NCC3CCCCC3)n2)s1 (centres undefined),18
4,Cc1ccc(-c2cc(N)c(=O)n(CC(=O)NC3CCCC3)n2)s1,13
5,Cc1ccc2c(c1)C(=O)NCC1(CCN(C(=O)c3csc(C)c3)CC1)O2,-9.12
6,Cc1ccc2c(c1)C(=O)NCC1(CCN(C(=O)c3scnc3C)CC1)O2,-6.59
7,Clc1ccccc1CN1CCCC(c2nnc(-c3cnccn3)o2)C1 (centres undefined),-5.49
8,Cn1nccc1C(=O)N1C[C@@H]2CC[C@H](Oc3cccc(F)c3)[C@@H]2C1,-3.82
9,NCc1cnn(-c2ccccc2C(=O)NCc2ccccn2)c1,-5.83
10,Cc1noc(CNC(=O)c2ccccc2-n2cc(CN)cn2)n1,-5.09
11,CN(CC1(O)CCCN(c2ccccn2)C1)C(=O)CC1CCOCC1 (centres undefined),-9.69
12,Cn1cc(CN2CC[C@H](O)[C@@H](n3ccc(=O)[nH]c3=O)CC2)cn1,12.4
13,Cc1noc(C)c1-c1cncc(C2CCCN2Cc2cc[nH]n2)n1 (centres undefined),-3.25
14,CN(C)CC(=O)N1CCCCC1c1nc(N)ncc1-c1ccccc1 (centres undefined),5.62
15,CC(=O)N1CCCC(Cc2cnc(C(=O)N3CCC(C)CC3)cn2)C1 (centres undefined),-5.67
16,CCn1ccc(C(=O)N2CCCC2(C)c2nc(C)cc(N(C)C)n2)n1 (centres undefined),-7.92
17,O=c1c2sccc2nc2n1CCN(Cc1ccsc1)CC2,17.3
18,CCOc1ccc(CN2CCc3nc4ccsc4c(=O)n3CC2)cc1,-6.57
19,Clc1ccccc1CN1CCc2nc(C3CCNCC3)ncc2C1,-6.61
20,c1cncc(-c2nccc(CN3CCC(N4CCCCC4)CC3)n2)c1,18.5
21,CCn1cc(CN2C[C@@H]3CCCN3C[C@@H]2CCSC)cn1,-2.81
22,Cc1cc(C[C@@H]2COC[C@H]2NCc2ccc(C(F)(F)F)cc2)on1,-5.79
